Columns and labels:
[1] = target: T1, cannabinoid type-1 receptor (CB1) (Homo sapiens, UniProt P21554); assay: BRET CAMYEL cAMP inhibition assay (agonism); also weak radioligand displacement ([…] at […]); format: cell-based
T1 construct: gene CNR1; 3HA-tagged human CB1 in HEK293 cells

[2] = target: T2, CES1 (carboxylesterase 1, CES1A1) (Homo sapiens, UniProt P23141); assay: product of AMB-FUBINACA hydrolysis by recombinant CES1, HPLC-DAD; format: biochemical
T2 construct: CES1 isoform b (CES1b/CES1A1) human recombinant
T2 sequence (P23141 18-567): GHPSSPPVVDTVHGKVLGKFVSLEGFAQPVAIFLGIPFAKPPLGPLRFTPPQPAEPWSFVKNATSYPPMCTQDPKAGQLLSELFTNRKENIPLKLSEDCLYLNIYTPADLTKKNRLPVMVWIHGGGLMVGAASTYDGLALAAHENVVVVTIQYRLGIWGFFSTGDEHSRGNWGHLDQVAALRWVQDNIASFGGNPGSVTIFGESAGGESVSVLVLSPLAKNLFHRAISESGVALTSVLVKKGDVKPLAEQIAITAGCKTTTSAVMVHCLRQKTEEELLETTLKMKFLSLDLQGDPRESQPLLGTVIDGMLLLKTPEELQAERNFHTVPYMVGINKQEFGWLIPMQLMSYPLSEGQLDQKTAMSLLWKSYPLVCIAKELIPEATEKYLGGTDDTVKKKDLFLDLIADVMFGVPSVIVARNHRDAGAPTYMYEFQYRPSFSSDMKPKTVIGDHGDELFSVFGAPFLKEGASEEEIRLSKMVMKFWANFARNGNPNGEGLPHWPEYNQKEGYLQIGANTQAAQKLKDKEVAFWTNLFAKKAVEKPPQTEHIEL

[3] = target: T2, CES1 (carboxylesterase 1, CES1A1); assay: hydrolysis by recombinant CES1, HPLC-DAD time course (t1/[…] s at […]); format: biochemical
[4] = target: T1, cannabinoid type-1 receptor (CB1); assay: BRET CAMYEL cAMP inhibition assay (agonism) in HEK293 cells stably expressing 3HA-hCB1; format: cell-based
[5] = target: T3, CES2 (carboxylesterase-2) (Homo sapiens, UniProt O00748); assay: p-nitrophenol formation by recombinant CES2, absorbance at […] nm; format: biochemical
T3 construct: carboxylesterase-2 (CES2) human recombinant
T3 sequence (O00748 27-559): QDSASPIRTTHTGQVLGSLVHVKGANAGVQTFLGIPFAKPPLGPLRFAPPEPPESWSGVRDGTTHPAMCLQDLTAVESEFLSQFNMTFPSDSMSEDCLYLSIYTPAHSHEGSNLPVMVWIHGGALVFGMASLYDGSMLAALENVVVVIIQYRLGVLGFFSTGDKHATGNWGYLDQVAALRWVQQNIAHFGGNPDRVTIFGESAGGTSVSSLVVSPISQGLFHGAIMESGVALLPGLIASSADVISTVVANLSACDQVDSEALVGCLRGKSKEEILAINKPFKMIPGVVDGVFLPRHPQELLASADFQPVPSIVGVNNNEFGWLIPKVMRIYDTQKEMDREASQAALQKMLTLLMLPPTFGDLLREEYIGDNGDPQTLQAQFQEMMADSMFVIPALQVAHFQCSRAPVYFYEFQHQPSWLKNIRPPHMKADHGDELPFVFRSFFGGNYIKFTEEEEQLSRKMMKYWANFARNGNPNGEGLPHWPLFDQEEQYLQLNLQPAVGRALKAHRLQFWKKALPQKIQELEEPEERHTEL

[6] = target: T2, CES1 (carboxylesterase 1, CES1A1); assay: p-nitrophenol formation by recombinant CES1, absorbance at […] nm; format: biochemical
[7] = target: T3, CES2 (carboxylesterase-2); assay: inhibition of PNPA hydrolysis by recombinant CES2, absorbance at […] nm; format: biochemical; details: read-out: % of control velocity at 50 μM
[8] = target: T2, CES1 (carboxylesterase 1, CES1A1); assay: inhibition of PNPA hydrolysis by recombinant CES1, absorbance at […] nm; format: biochemical; details: read-out: % of control velocity at 50 μM

T1 sequence (P21554 whole entry): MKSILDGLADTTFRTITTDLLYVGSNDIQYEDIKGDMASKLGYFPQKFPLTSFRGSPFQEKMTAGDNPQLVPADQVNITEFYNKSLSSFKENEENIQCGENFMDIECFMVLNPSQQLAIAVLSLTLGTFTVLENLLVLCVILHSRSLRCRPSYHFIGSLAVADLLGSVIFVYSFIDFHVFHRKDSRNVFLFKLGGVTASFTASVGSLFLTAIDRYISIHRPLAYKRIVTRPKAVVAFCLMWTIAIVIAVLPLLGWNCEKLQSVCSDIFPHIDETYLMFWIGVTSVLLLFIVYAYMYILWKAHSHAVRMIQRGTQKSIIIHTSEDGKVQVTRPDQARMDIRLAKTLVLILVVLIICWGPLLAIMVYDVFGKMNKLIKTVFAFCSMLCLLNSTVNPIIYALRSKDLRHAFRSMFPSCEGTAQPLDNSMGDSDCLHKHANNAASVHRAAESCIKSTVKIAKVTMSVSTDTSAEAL

In the case of `CC(C)[C@H](NC(=O)c1nn(Cc2ccc(F)cc2)c2ccccc12)C(=O)O` [AMB-FUBINACA acid, methyl (2S)-2-((1-((4-fluorophenyl)methyl]indazole-3-carbonyl)amino)-3-methylbutanoic acid], the EC50 [1] is reported as 447 nM and the “product of AMB-FUBINACA hydrolysis by recombinant CES1, HPLC-DAD” value [2] is reported as “No metabolites other than AMB-FUBINACA acid were generated”.
`COC(=O)[C@@H](NC(=O)c1nn(Cc2ccc(F)cc2)c2ccccc12)C(C)C` [AMB-FUBINACA, methyl (2S)-2-((1-((4-fluorophenyl)methyl)indazole-3-carbonyl)amino)-3-methylbutanoate] gave a half-life at 3 µM [3] of 2 min and an EC50 [4] of 0.148 nM.
In the case of `CC(=O)Oc1ccc([N+](=O)[O-])cc1` [p-nitrophenyl acetate], the “p-nitrophenol formation by recombinant CES2, absorbance at 405 nm” value [5] is reported as 221 nmol/min/mg and the “p-nitrophenol formation by recombinant CES1, absorbance at 405 nm” value [6] is reported as 296 nmol/min/mg.
`CCCc1nc2c(C)cc(-c3nc4ccccc4n3C)cc2n1Cc1ccc(-c2ccccc2C(=O)O)cc1` [telmisartan] was tested, and the remaining activity at 50 µM [7] was 58.2% and the remaining activity at 50 µM [8] was 71%.

Reference: PMC9849163, “Characterisation of AMB-FUBINACA metabolism and CB1-mediated activity of its acid metabolite” (Forensic Toxicology, 2022)
